Measurements published in patent US8895756B2, “Bendamustine pharmaceutical compositions” (priority 2005, dated 2014).

Test: HPLC stability of bendamustine (15 mg/mL, mannitol 25.5 mg/mL) in alcohol/water solutions at 5° C.
Format: physicochemical
Settings: 5° C.
Description: A sample of each formulation was analyzed by HPLC after 0, 3, 6 and 24 hours when stored at 5° C.

## Cl.Cn1c(CCCC(=O)O)nc2cc(N(CCCl)CCCl)ccc21 [bendamustine, 4-{5-[Bis(2-chloroethyl)amino]-1-methyl-2-benzimidazolyl}butyric acid]
1.9% Ethanol, 0 hours
  Dimer (%): 0.12%
  HP1 (%): 0.64%
  Purity (% Area): 99.11 % Area
1.9% Ethanol, 3 hours
  Dimer (%): 0.14%
  HP1 (%): 0.90%
  Purity (% Area): 98.83 % Area
1.9% Ethanol, 6 hours
  Dimer (%): 0.15%
  HP1 (%): 1.12%
  Purity (% Area): 98.60 % Area
1.9% Ethanol, 24 hours
  Dimer (%): 0.27%
  HP1 (%): 3.41%
  Purity (% Area): 96.16 % Area
5% Butanol, 0 hours
  Dimer (%): 0.13%
  HP1 (%): 0.49%
5% Butanol, 3 hours
  Dimer (%): 0.14%
5% Butanol, 6 hours
  Dimer (%): 0.14%
  HP1 (%): 0.91%
  Purity (% Area): 98.76 % Area
5% Butanol, 24 hours
  Dimer (%): 0.21%
  HP1 (%): 2.20%
  Purity (% Area): 97.46 % Area
5% Ethanol, 0 hours
  Dimer (%): 0.12%
  HP1 (%): 0.44%
  Purity (% Area): 99.31 % Area
5% Ethanol, 3 hours
  Dimer (%): 0.13%
  HP1 (%): 0.64%
  Purity (% Area): 99.10 % Area
5% Ethanol, 6 hours
  Dimer (%): 0.14%
  HP1 (%): 0.86%
  Purity (% Area): 98.87 % Area
5% Ethanol, 24 hours
  Dimer (%): 0.25%
  HP1 (%): 2.68%
  Purity (% Area): 96.89 % Area
5% Iso-propanol, 0 hours
  Dimer (%): 0.13%
  HP1 (%): 0.48%
  Purity (% Area): 99.21 % Area
5% Iso-propanol, 3 hours
  Dimer (%): 0.14%
  HP1 (%): 0.72%
  Purity (% Area): 98.65 % Area
5% Iso-propanol, 6 hours
  Dimer (%): 0.14%
  HP1 (%): 1.02%
  Purity (% Area): 98.56 % Area
5% Iso-propanol, 24 hours
  Dimer (%): 0.26%
  HP1 (%): 3.35%
  Purity (% Area): 96.14 % Area
5% Methanol, 0 hours
  Dimer (%): 0.12%
  HP1 (%): 0.40%
  Purity (% Area): 99.35 % Area
5% Methanol, 3 hours
  Dimer (%): 0.14%
  HP1 (%): 0.70%
  Purity (% Area): 98.97 % Area
5% Methanol, 6 hours
  Dimer (%): 0.14%
  HP1 (%): 0.95%
  Purity (% Area): 98.66 % Area
5% Methanol, 24 hours
  Dimer (%): 0.23%
  HP1 (%): 2.83%
  Purity (% Area): 96.65 % Area
5% Tert-butanol, 0 hours
  Dimer (%): 0.12%
  HP1 (%): 0.41%
  Purity (% Area): 99.34 % Area
5% Tert-butanol, 3 hours
  Dimer (%): 0.14%
  HP1 (%): 0.64%
  Purity (% Area): 99.10 % Area
5% Tert-butanol, 6 hours
  Dimer (%): 0.13%
  HP1 (%): 0.88%
  Purity (% Area): 98.85 % Area
5% Tert-butanol, 24 hours
  Dimer (%): 0.20%
  HP1 (%): 2.09%
  Purity (% Area): 97.58 % Area
5% n-Propanol, 0 hours
  Dimer (%): 0.13%
  HP1 (%): 0.43%
  Purity (% Area): 99.25 % Area
5% n-Propanol, 3 hours
  Dimer (%): 0.15%
  HP1 (%): 0.66%
  Purity (% Area): 99.00 % Area
5% n-Propanol, 6 hours
  Dimer (%): 0.16%
  HP1 (%): 0.94%
  Purity (% Area): 98.72 % Area
5% n-Propanol, 24 hours
  Dimer (%): 0.26%
  HP1 (%): 2.33%
  Purity (% Area): 97.24 % Area
10% Butanol, 0 hours
  Dimer (%): 0.11%
  HP1 (%): 0.30%
  Purity (% Area): 99.44 % Area
10% Butanol, 3 hours
  Dimer (%): 0.12%
  HP1 (%): 0.49%
  Purity (% Area): 99.18 % Area
10% Butanol, 6 hours
  Dimer (%): 0.12%
  HP1 (%): 0.64%
  Purity (% Area): 99.03 % Area
10% Butanol, 24 hours
  Dimer (%): 0.17%
  HP1 (%): 1.55%
  Purity (% Area): 98.13 % Area
10% Ethanol, 0 hours
  Dimer (%): 0.11%
  HP1 (%): 0.33%
  Purity (% Area): 99.44 % Area
10% Ethanol, 3 hours
  Dimer (%): 0.12%
  HP1 (%): 0.48%
  Purity (% Area): 99.28 % Area
10% Ethanol, 6 hours
  Dimer (%): 0.12%
  HP1 (%): 0.65%
  Purity (% Area): 99.10 % Area
10% Ethanol, 24 hours
  Dimer (%): 0.18%
  HP1 (%): 1.57%
  Purity (% Area): 98.03 % Area
10% Iso-propanol, 0 hours
  Dimer (%): 0.12%
  HP1 (%): 0.37%
  Purity (% Area): 99.32 % Area
10% Iso-propanol, 3 hours
  Dimer (%): 0.14%
  HP1 (%): 0.55%
  Purity (% Area): 99.11 % Area
10% Iso-propanol, 6 hours
  Dimer (%): 0.16%
  HP1 (%): 0.75%
  Purity (% Area): 98.85 % Area
10% Iso-propanol, 24 hours
  Dimer (%): 0.21%
  HP1 (%): 1.92%
  Purity (% Area): 97.68 % Area
10% Methanol, 0 hours
  Dimer (%): 0.11%
  HP1 (%): 0.34%
  Purity (% Area): 99.42 % Area
10% Methanol, 3 hours
  Dimer (%): 0.12%
  HP1 (%): 0.59%
  Purity (% Area): 99.01 % Area
10% Methanol, 6 hours
  Dimer (%): 0.12%
  HP1 (%): 0.80%
  Purity (% Area): 98.86 % Area
10% Methanol, 24 hours
  Dimer (%): 0.18%
  HP1 (%): 1.85%
  Purity (% Area): 97.65 % Area
10% Tert-butanol, 0 hours
  Dimer (%): 0.11%
  HP1 (%): 0.30%
  Purity (% Area): 99.46 % Area
10% Tert-butanol, 3 hours
  Dimer (%): 0.12%
  HP1 (%): 0.48%
  Purity (% Area): 99.26 % Area
10% Tert-butanol, 6 hours
  Dimer (%): 0.13%
  HP1 (%): 0.69%
  Purity (% Area): 99.05 % Area
10% Tert-butanol, 24 hours
  Dimer (%): 0.19%
  HP1 (%): 1.64%
  Purity (% Area): 98.04 % Area
10% n-Propanol, 0 hours
  Dimer (%): 0.15%
  HP1 (%): 0.33%
  Purity (% Area): 99.34 % Area
10% n-Propanol, 3 hours
  Dimer (%): 0.14%
  HP1 (%): 0.48%
  Purity (% Area): 99.17 % Area
10% n-Propanol, 6 hours
  Dimer (%): 0.16%
